The values below come from ChEMBL document CHEMBL1250454, “Oral oxytocin antagonists” (J Med Chem, 2010).

In series [1] the test system is Rattus norvegicus. The series is described as follows: Inhibition of oxytocin-induced uterine contraction in po dosed rat. Type of series: functional.
The species entered for series [2] is Homo sapiens. The series is described as follows: Selectivity ratio of Ki for human oxytocin receptor Ki for human vasopressin V1a receptor.
Series [3] in a line: Half life in pregnant rat. Format: ADME, organism-based. The following applies: female, in vivo.
Series [4] concerns Rattus norvegicus. The series can be described thus: Inhibition of oxytocin-induced uterine contraction in iv dosed rat. Type of series: functional.
The target in series [5] is T1, Vasopressin V2 receptor (Homo sapiens, UniProt P30518). The series is described as follows: Displacement of [3H]vasopressin from human vasopressin V2 receptor expressed in CHO cells. Type of series: cell-based. A general note: Displacement assays read how much labelled ligand stays bound in the presence of the test substance.
T1 sequence (P30518 whole entry): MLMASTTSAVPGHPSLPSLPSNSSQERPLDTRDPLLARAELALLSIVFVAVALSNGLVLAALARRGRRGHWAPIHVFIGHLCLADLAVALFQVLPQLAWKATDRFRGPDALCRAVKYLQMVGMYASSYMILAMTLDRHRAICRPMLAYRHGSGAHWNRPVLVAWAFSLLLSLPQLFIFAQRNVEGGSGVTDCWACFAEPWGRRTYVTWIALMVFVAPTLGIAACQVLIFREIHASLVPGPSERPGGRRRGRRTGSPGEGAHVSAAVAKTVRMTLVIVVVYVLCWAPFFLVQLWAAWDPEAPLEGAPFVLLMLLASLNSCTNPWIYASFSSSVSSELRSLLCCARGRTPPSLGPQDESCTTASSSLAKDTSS
The nature of series [6]: Oral bioavailability in rat. Type of series: ADME, organism-based. The following applies: in vivo.
Series [7] deals with T2, Oxytocin receptor (Homo sapiens, UniProt P30559).
T2 sequence (P30559 whole entry): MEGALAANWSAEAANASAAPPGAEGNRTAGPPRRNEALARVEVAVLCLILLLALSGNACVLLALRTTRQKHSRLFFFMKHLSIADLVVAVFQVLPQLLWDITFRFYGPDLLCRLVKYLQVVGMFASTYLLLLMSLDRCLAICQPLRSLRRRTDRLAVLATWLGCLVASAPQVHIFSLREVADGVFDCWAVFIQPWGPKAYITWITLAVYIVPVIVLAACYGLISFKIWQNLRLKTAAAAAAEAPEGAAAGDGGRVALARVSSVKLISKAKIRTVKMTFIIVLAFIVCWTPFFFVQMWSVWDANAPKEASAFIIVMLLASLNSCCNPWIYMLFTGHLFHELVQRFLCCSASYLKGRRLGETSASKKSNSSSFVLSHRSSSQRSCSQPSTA
The series can be described thus: Displacement of [3H]-oxytocin from oxytocin receptor in human uterus tissue. Type of series: tissue-based.

Series [8] is described as follows: Oral bioavailability in pregnant rat. Type of series: ADME, organism-based. The following applies: female, in vivo.
Series [9] deals with T2, Oxytocin receptor. The series can be described thus: Displacement of [3H]-oxytocin from human oxytocin receptor expressed in CHO cells. Format: cell-based.
The target in series [10] is T3, Oxytocin receptor (Rattus norvegicus, UniProt P70536).
T3 sequence (P70536 whole entry): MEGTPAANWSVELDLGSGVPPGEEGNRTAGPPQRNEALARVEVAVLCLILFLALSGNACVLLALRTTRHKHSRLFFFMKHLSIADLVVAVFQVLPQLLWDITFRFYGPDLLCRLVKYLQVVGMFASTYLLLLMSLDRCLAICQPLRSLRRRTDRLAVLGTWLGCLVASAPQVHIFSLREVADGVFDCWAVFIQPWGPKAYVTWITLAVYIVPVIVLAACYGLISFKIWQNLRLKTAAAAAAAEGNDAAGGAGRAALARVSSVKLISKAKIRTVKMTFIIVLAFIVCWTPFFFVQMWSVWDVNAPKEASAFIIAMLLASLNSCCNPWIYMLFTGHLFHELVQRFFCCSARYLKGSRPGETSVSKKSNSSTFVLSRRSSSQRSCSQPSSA
The series can be described thus: Antagonist activity at oxytocin receptor in rat uterine strips assessed as inhibition of oxytocin-induced contraction. Format: functional. The following applies: read-out: pA2 (converted).

For series [11], the species on record is Homo sapiens. The series can be described thus: Selectivity ratio of Ki for human oxytocin receptor Ki for human vasopressin V2 receptor.
The target of the next series is T4, Vasopressin V1b receptor (Homo sapiens, UniProt P47901).
T4 sequence (P47901 whole entry): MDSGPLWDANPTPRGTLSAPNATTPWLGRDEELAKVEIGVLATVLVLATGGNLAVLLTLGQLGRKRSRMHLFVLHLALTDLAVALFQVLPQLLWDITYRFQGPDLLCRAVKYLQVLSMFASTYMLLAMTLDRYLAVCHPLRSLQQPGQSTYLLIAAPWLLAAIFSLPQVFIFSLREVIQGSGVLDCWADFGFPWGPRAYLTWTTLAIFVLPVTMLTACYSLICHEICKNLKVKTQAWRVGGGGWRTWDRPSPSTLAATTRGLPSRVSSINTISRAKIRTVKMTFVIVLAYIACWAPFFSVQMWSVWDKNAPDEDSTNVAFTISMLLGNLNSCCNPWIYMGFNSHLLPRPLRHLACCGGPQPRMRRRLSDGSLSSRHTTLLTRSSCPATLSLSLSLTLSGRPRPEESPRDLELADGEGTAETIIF
The series is described as follows: Displacement of [3H]vasopressin from human vasopressin V1b receptor expressed in CHO cells. Type of series: cell-based.

Series [12] has as its target T5, Vasopressin V1a receptor (Homo sapiens, UniProt P37288). The series is described as follows: Displacement of [3H]vasopressin from human vasopressin V1a receptor expressed in CHO cells at 10 uM. Format: cell-based.
Series [13] deals with Rattus norvegicus. The series is described as follows: Inhibition of oxytocin-induced uterine contraction in intraduodenally dosed rat. Type of series: functional.
Series [14] can be described thus: Oral bioavailability in rhesus monkey. Format: ADME, organism-based, Macaca mulatta. The following applies: in vivo.
Series [15] is described as follows: Half life in rhesus monkey. Format: ADME, organism-based, Macaca mulatta. The following applies: in vivo.
For series [16], the target named is T5, Vasopressin V1a receptor. The series can be described thus: Displacement of [3H]vasopressin from vasopressin V1a receptor in human liver tissue.
Series [17] concerns the target Vasopressin V2 receptor (Rattus norvegicus, UniProt Q00788). The series is described as follows: Displacement of [3H]vasopressin from vasopressin V2 receptor in rat kidney tissue.
For series [18], the target named is T1, Vasopressin V2 receptor. The series is described as follows: Displacement of [3H]vasopressin from vasopressin V2 receptor in human kidney tissue.
Series [19] is described as follows: Aqueous solubility of the compound at pH 5. Type of series: physicochemical.
Series [20] can be described thus: Oral bioavailability in chimpanzee. Format: ADME, organism-based, Pan troglodytes. The following applies: in vivo.
Series [21] concerns the target Vasopressin V1a receptor (Rattus norvegicus, UniProt P30560). The series can be described thus: Displacement of [3H]vasopressin from vasopressin V1a receptor in rat liver tissue.
Series [22] concerns the target T3, Oxytocin receptor. The series can be described thus: Displacement of [3H]-oxytocin from oxytocin receptor in rat uterus tissue. Format: tissue-based.
Series [23] can be described thus: Oral bioavailability in human. Format: ADME, organism-based. The following applies: in vivo.
Series [24] can be described thus: Oral bioavailability in dog. Format: ADME, organism-based, Canis lupus familiaris. The following applies: in vivo.
Series [25] is described as follows: Aqueous solubility of the compound at pH 5.2. Format: physicochemical. The following applies: buffer.
Series [26] has as its target T2, Oxytocin receptor. The series is described as follows: Displacement of [3H]-oxytocin from human oxytocin receptor expressed in HEK293-EBNA cells. Format: cell-based.
A short description of series [27]: Clearance in rat. Type of series: ADME, organism-based. The following applies: in vivo.
Series [28] is described as follows: Half life in rat. Format: ADME, organism-based. The following applies: in vivo.

pIC50, pKi: −log10 of the molar value. Converted amounts (≈) assume the structure as drawn.

Sequence of Vasopressin V2 receptor (Rattus norvegicus, UniProt Q00788) (Q00788 whole entry): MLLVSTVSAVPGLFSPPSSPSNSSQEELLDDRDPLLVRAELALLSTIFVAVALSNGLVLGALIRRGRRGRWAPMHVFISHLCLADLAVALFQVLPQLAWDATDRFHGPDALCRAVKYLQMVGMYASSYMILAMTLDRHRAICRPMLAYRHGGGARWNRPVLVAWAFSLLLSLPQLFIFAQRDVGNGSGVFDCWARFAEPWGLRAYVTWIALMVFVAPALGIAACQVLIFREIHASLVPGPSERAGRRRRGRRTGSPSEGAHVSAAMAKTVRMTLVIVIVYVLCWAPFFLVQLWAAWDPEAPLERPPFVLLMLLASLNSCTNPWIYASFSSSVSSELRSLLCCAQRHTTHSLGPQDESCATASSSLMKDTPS
T5 sequence (P37288 whole entry): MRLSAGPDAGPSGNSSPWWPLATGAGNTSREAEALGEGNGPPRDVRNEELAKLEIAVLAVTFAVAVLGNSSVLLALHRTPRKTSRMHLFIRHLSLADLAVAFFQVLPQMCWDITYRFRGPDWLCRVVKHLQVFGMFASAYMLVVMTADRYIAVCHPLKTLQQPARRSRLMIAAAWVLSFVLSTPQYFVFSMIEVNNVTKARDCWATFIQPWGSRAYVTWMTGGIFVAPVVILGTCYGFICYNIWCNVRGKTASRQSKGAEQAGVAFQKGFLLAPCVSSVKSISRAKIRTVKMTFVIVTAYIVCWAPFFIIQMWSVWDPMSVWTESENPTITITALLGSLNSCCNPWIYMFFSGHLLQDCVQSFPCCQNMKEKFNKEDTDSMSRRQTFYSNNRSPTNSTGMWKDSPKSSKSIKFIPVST
Sequence of Vasopressin V1a receptor (Rattus norvegicus, UniProt P30560) (P30560 whole entry): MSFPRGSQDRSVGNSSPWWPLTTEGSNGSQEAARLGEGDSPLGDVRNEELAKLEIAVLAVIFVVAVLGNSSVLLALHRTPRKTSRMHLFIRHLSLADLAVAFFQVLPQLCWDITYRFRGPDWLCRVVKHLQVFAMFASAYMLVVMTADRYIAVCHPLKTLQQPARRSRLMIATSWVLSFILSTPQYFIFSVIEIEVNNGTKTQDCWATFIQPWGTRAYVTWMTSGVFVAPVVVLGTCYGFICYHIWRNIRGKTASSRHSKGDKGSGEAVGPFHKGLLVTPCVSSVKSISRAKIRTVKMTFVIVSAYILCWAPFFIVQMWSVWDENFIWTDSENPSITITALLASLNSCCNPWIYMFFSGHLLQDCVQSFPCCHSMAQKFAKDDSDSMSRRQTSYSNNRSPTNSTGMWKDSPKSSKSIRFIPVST

Turning to `CO/N=C1/C[C@@H](C(=O)NC[C@@H](O)c2ccccc2)N(C(=O)c2ccc(-c3ccccc3C)cc2)C1`, the median effective dose (ED50) came out at 89 mg/kg in the series with Rattus norvegicus [1] and 3.5 mg/kg in the series on Rattus norvegicus [4] (Rattus norvegicus, iv). For the same compound, the Ratio Ki in the series listed under Homo sapiens [2] was 6; in the series filed under Homo sapiens [11] it was 350. In series [3], the half-life is 2.8 h. Also, the values for the pKi on Vasopressin V2 receptor [5] and at Oxytocin receptor [7] were less than 5.00 and 7.55, respectively. In addition, the bioavailability in series [6] and in series [8] was 49% in each case. Also, the pIC50 at Oxytocin receptor [9] was 7.55. Further, the Kb on Oxytocin receptor [10] was 15.8 nM.
As for `CCOCc1nnc(-c2ccc(OCC)c(C)c2)n1-c1ccc(OC)nc1`, the negative-log Ki (pKi) on Vasopressin V1b receptor is less than 5.00; on Vasopressin V2 receptor [5] it was less than 5.00; at Vasopressin V1a receptor [12], 6.26.
Regarding `COc1ccc(N(Cc2ccc(-c3ccccc3C)cn2)S(=O)(=O)c2cn(C)c(C)n2)cn1`, the Ratio Ki in the series listed under Homo sapiens [2] came to 80; in the series filed under Homo sapiens [11], 15700. On Oxytocin receptor [7], this compound had a pKi of 8.04.
As for `COc1cc(OC2CCN(C(C)=O)CC2)ccc1C(=O)N1CCC(N2C(=O)OCc3ccccc32)CC1`, the AD50 with Rattus norvegicus [13] came out at 2.5 mg/kg; in the series on Rattus norvegicus [4] it was 0.55 mg/kg. Besides, the bioavailability in series [14] was found to be 13%.
`COc1cc(OC2CCN(Cc3ccc[n+]([O-])c3C)CC2)ccc1C(=O)N1CCC(N2C(=O)OCc3ccccc32)CC1` gave a half-life in [15] of 2 h. In addition, the Ratio Ki was 650 in the series listed under Homo sapiens [2] and more than 5700 in the series listed under Homo sapiens [11]. Moreover, the AD50 was 2.5 mg/kg with Rattus norvegicus [13] and 0.78 mg/kg with Rattus norvegicus [4]. The pKi is 5.49 on Vasopressin V1a receptor [16]; 5.01 at Vasopressin V2 receptor [17]; 4.55 on Vasopressin V2 receptor [18]; 8.31 at Oxytocin receptor [7]; 9.12 at Vasopressin V1a receptor [21]; 7.85 on Oxytocin receptor [22]. Also, the solubility in series [19] is 10000 µg/mL (≈ 17 mM). The results for the bioavailability in series [6], in [14] and in [20] were 80%, 36% and 90%, respectively.
Take `O=C(Cn1cc(C(F)(F)F)ccc1=O)NCc1cc2cc(C(=O)N3CCC(N4C(=O)OCc5ccccc54)CC3)ccc2o1`: the Ratio Ki in the series listed under Homo sapiens [2] was 630; in the series filed under Homo sapiens [11], more than 1500. The pKi at Vasopressin V2 receptor [18] was less than 5.52. In [20], this compound yielded a bioavailability of 51%.
For the compound `Cc1ccccc1N1CCN(S(=O)(=O)C[C@]23CC[C@H](C[C@@H]2NC(=O)[C@@H](N)CCS(C)(=O)=O)C3(C)C)CC1`, the Ratio Ki in the series filed under Homo sapiens [2] came to 14; in the series listed under Homo sapiens [11], 45. In addition, the AD50 stood at 7 mg/kg with Rattus norvegicus [13] and 0.35 mg/kg with Rattus norvegicus [4]. The pKi is 6.74 on Vasopressin V1a receptor [16]; 6.70 at Vasopressin V2 receptor [17]; 6.23 at Vasopressin V2 receptor [18]; 7.89 at Oxytocin receptor [7]; 6.96 on Vasopressin V1a receptor [21]; 8.44 at Oxytocin receptor [22]. The bioavailability was 20% in [23], 25% in series [24], 35% in [6] and 21% in [20]. Moreover, the solubility in series [25] was determined as 2.5 mg/kg.
For the compound `CO/N=C1/C[C@H](c2nc(C)no2)N(C(=O)c2ccc(-c3ccccc3C)cc2)C1`, the values for the pKi at Vasopressin V1a receptor [12] and at Oxytocin receptor [26] were 7.22 and 7.30, respectively.
With `CC1(C)[C@@H]2CC[C@@]1(CS(=O)(=O)N1CCC3(C=Cc4ccccc43)CC1)[C@@](O)(CC(=O)O)C2`, the Ratio Ki in the series listed under Homo sapiens [2] is 3; in the series listed under Homo sapiens [11], 11. Also, the AD50 with Rattus norvegicus [13] amounted to 30 mg/kg; with Rattus norvegicus [4] it was 10 mg/kg. For the same compound, the negative-log Ki (pKi) on Vasopressin V1a receptor [16] is 5.80; on Vasopressin V2 receptor [17] it was 4.54; at Vasopressin V2 receptor [18] it was 5.25; at Oxytocin receptor [7], 6.28; at Vasopressin V1a receptor [21] it was 4.59; at Oxytocin receptor [22], 6.43.
On Vasopressin V1b receptor, `COc1ccc(-n2c(C)nnc2-c2cnc(-c3ccc(F)cc3C)cn2)cn1` gave a pKi of less than 5.00. The clearance in series [27] was 50 mL/min/kg. The same compound gave a solubility in series [19] of 6 µg/mL (≈ 0.0159 mM). The compound also had a half-life in [28] of 1 h.
In the case of `Cc1ccc(S(=O)(=O)N2CCC3(C=Cc4ccccc43)CC2)cc1`, the pKi was less than 4.40 on Vasopressin V2 receptor [17], 6.00 at Oxytocin receptor [7] and 5.01 on Vasopressin V1a receptor [21].

For orientation: ED50 means the dose at which the effect has come halfway, by size or by number of responders. The half-life is the time needed for the level to fall by half in the phase considered. Broadly, the pKi is −log10 of the Ki, conventionally taken in molar units. As usually defined, the bioavailability is the share of a dose that reaches the circulation, judged against a reference dose that is usually intravenous. The pIC50 is −log10 of the IC50, conventionally taken in molar units. As a reminder, the clearance is the volume of plasma or blood freed of the substance per unit of time.
